Data taken from ChEMBL document CHEMBL4665792 (J Med Chem, 2020).
Calls of active or inactive are those of the source. The calls are words filed in the database; no cut-off is given here.

Columns and labels:
[1] = test system: HT-29; experiment: Inhibition of TrxR in human HT29 cells assessed as decrease in ASK1 to phosphorylated ASK1 expression ratio at 0.25 to 1 uM incubated for 24 hrs by Western blot analysis; type: cell-based
[2] = test system: HT-29; experiment: Cell cycle arrest in human HT-29 cells assessed as accumulation at G2/M phase incubated for 24 hrs by propidium iodide staining based flow cytometry; type: functional; details: dose microM 0.125-0.5, time 24.0 hrs
[3] = test system: HCT-116; experiment: Inhibition of TrxR in human HCT-116 cells assessed as increase in production of intracellular ROS incubated for 24 hrs by DCFH-DA staining-based flow cytometric analysis; type: cell-based
[4] = biological target: T1, Glutathione reductase, mitochondrial (Homo sapiens) (UniProt P00390); experiment: Inhibition of GR in human HT-29 cells incubated for 24 hrs in presence of GSSG and NADPH; type: cell-based
T1 sequence (whole entry): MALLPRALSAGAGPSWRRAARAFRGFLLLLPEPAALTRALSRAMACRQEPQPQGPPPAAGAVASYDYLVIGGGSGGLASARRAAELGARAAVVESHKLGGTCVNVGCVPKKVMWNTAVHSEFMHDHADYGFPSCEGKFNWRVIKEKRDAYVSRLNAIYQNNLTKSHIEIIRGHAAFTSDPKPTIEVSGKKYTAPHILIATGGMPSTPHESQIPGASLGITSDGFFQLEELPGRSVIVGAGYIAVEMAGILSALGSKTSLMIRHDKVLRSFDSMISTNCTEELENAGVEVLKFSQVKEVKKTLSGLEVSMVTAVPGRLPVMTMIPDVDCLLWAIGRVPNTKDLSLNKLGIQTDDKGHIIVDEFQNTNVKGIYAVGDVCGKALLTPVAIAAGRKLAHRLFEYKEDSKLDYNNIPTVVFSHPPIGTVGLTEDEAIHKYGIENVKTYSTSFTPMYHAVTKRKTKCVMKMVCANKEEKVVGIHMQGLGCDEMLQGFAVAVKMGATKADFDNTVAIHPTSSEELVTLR

[5] = Covalent inhibition of TrxR (unknown origin) assessed as covalent bond formation incubated up to 30 mins in presence of NADPH by Ellman's method; set-up: species or system Homo sapiens
[6] = Selectivity index, ratio IC50 for human L02 cells to IC50 for human HT-29 cells; type: toxicity; details: L02 cells versus HT-29 cells, read-out: Ratio IC50
[7] = test system: MCF7; experiment: Antiproliferative activity against human MCF7 cells assessed as reduction in cell viability incubated for 24 hrs by MTT assay; type: functional, cell-based; details: MCF7, 24 h
[8] = biological target: T2, Thioredoxin (Homo sapiens) (UniProt P10599); experiment: Inhibition of Trx in human HT-29 cells incubated for 24 hrs in presence of insulin, NADPH and DTT; type: cell-based
T2 sequence (whole entry): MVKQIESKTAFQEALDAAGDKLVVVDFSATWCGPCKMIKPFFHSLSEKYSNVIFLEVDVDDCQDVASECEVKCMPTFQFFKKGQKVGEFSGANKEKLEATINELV

[9] = organism: Rattus norvegicus; experiment: Binding affinity to rat liver TrxR assessed as RSGGDILQSGCUG-adduct formation by measuring retention time at 10 uM incubated for 1.5 hrs by LC-MS/MS analysis
[10] = test system: HT-29; experiment: Down regulation of Trx expression in human HT29 cells at 0.25 to 1 uM incubated for 24 hrs by Western blot analysis; type: functional, cell-based
[11] = test system: HT-29; experiment: Antiproliferative activity against human HT-29 cells assessed as reduction in cell viability incubated for 24 hrs by MTT assay; type: functional, cell-based; details: HT-29, 24 h
[12] = test system: HT-29; experiment: Antiproliferation activity against human HT-29 cells assessed as decrease in number of EdU-positive cells at 0.125 to 0.5 uM incubated for 20 hrs followed by addition of EdU-labelling agent measured after 8 hrs by Hoechst-33258 staining based analysis; type: functional, cell-based; details: dose microM 0.125-0.500, time 28.0 hrs
[13] = Inhibition of TrxR in human HT-29 cells incubated for 60 mins in presence of insulin, NADPH and Trx by DTNB reagent based assay; type: cell-based
[14] = Selectivity index, ratio IC50 for human HK2 cells to IC50 for human HT-29 cells
[15] = test system: HT-29; experiment: Induction of apoptosis in human HT-29 cells assessed as increase in expression of Bax at 0.25 to 1 uM treated for 24 hrs by Western blot analysis; type: functional, cell-based
[16] = Binding affinity to NAC assessed as sulfhydryl group-adduct formation at 5 mg by online NMR analysis
[17] = test system: HCT-116; experiment: Antiproliferative activity against human HCT-116 cells assessed as reduction in cell viability incubated for 24 hrs by MTT assay; type: functional, cell-based; details: HCT-116, 24 h
[18] = test system: HT-29; experiment: Potency index, ratio of Withangulatin A IC50 to test compound IC50 for antiproliferative activity against human HT-29 cells assessed as reduction in cell viability; type: functional
[19] = organism: Homo sapiens; experiment: Inhibition of TrxR (unknown origin) at 5 uM in presence of NADPH by Ellman's method
[20] = test system: HT-29; experiment: Induction of apoptosis in human HT-29 cells assessed as decrease in expression of Bcl-2 at 0.25 to 1 uM treated for 24 hrs by Western blot analysis; type: functional, cell-based
[21] = Binding affinity to DTT assessed as sulfhydryl group-adduct formation at 5 mg incubated for 1.5 hrs by LC-MS/MS analysis
[22] = test system: HT-29; experiment: Induction of mitochondrial membrane potential loss in human HT-29 cells assessed as decrease in red to green fluorescence intensity ratio at 0.125 to 1 uM incubated for 24 hrs by JC-1 dye based fluorescence spectrophotometric analysis; type: functional, cell-based; details: dose microM 0.125-1, time 24.0 hrs
[23] = Inhibition of TrxR in human HT-29 cells incubated for 30 mins in presence of insulin, NADPH and Trx by DTNB reagent based assay; type: cell-based
[24] = test system: HT-29; experiment: Inhibition of TrxR in human HT-29 cells incubated for 24 hrs in presence of insulin, NADPH and Trx by DTNB reagent based assay; type: cell-based
[25] = organism: Rattus norvegicus; experiment: Binding affinity to rat liver TrxR assessed as SGGDILQSGCUG-adduct formation by measuring retention time at 10 uM incubated for 1.5 hrs by LC-MS/MS analysis
[26] = test system: HT-29; experiment: Induction of apoptosis in human HT-29 cells assessed as increase in expression of cleaved caspase-3 at 0.25 to 1 uM treated for 24 hrs by western blot analysis; type: functional, cell-based
[27] = test system: HT-29; experiment: Inhibition of TrxR in human HT-29 cells assessed as increase in production of intracellular ROS incubated for 24 hrs by DCFH-DA staining-based flow cytometric analysis; type: cell-based
[28] = test system: HT-29; experiment: Induction of apoptosis in human HT-29 cells assessed as increase in expression of cleaved PARP at 0.25 to 1 uM treated for 24 hrs by Western blot analysis; type: functional, cell-based
[29] = test system: HT-29; experiment: Induction of apoptosis in human HT-29 cells assessed as cell death at 0.25 to 1 uM incubated for 24 hrs by Annexin V-FITC/propidium iodide staining based flow cytometry; type: functional
[30] = test system: HT-29; experiment: Inhibition of TrxR in human HT29 cells assessed as increase in p53 to GAPDH expression ratio at 0.25 to 1 uM incubated for 24 hrs by Western blot analysis; type: cell-based
[31] = Inhibition of TrxR (unknown origin) in presence of NADPH by Ellman's method; set-up: species or system Homo sapiens
[32] = test system: HT-29; experiment: Antiproliferation activity against human HT-29 cells assessed as reduction in monoclonal ability incubated for 24 hrs followed by fresh medium supplementation every 2 to 3 days for 14 days by crystal violet staining based analysis; type: functional, cell-based; details: dose microM 0.015-0.06, time 24.0 hrs
[33] = test system: HK-2; experiment: Cytotoxicity against human HK2 cells assessed as cell viability incubated for 24 hrs by MTT assay; type: cell-based; details: HK-2, 24 h
[34] = test system: HT-29; experiment: Inhibition of GPx in human HT-29 cells incubated for 24 hrs in presence of GSH, NADPH and GR measured at 10 secs interval for 4 mins; type: cell-based; details: time 1444.0 min
[35] = test system: HT-29; experiment: Binding affinity to sulfhydryl group in human HT-29 cells assessed as decrease in total content of sulfhydryl groups; type: cell-based
[36] = Binding affinity to NAC assessed as sulfhydryl group-adduct formation at 5 mg incubated for 1.5 hrs by LC-MS/MS analysis
[37] = test system: HepG2; experiment: Antiproliferative activity against human HepG2 cells assessed as reduction in cell viability incubated for 24 hrs by MTT assay; type: functional, cell-based; details: HepG2, 24 h
[38] = test system: HT-29; experiment: Down regulation of TrxR expression in human HT29 cells at 0.25 to 1 uM incubated for 24 hrs by Western blot analysis; type: functional, cell-based
[39] = Inhibition of Escherichia coli Trx incubated for 1.5 hrs in presence of DTT and insulin
[40] = Inhibition of TrxR in human HT-29 cells incubated for 90 mins in presence of insulin, NADPH and Trx by DTNB reagent based assay; type: cell-based
[41] = test system: L02; experiment: Cytotoxicity against human L02 cells assessed as cell viability incubated for 24 hrs by MTT assay; type: cell-based; details: L02, 24 h

CC(=O)O[C@H]1C=C([C@H](C)[C@H]2CC(C)=C(C)C(=O)O2)[C@@]2(C)CC[C@H]3[C@@H](C[C@H]4O[C@]45[C@@H](OC(=O)/C=C/C(=O)N(C)C)C=CC(=O)[C@]35C)[C@]12O
inhibition [1]: Active | Activity [2]: Dose-dependent effect | inhibition [3]: Dose-dependent effect | inhibition [4]: Active | Ki [5]: 932 nM | selectivity ratio [6]: 66 | IC50 [7]: 330 nM | inhibition [8]: Active | Retention time [9]: 33.9 min | Activity [10]: Active | IC50 [11]: 80 nM | Activity [12]: Active | IC50 [13]: 870 nM | Ratio IC50 [14]: 56 | Activity [15]: Active | Activity [16]: Active | IC50 [17]: 130 nM | Ratio IC50 [18]: 30 | inhibition [19]: Active | Activity [20]: Active | Activity [21]: Active | Activity [22]: Active | IC50 [23]: 970 nM | inhibition [24]: Active | Retention time [25]: 31.7 min | Activity [26]: Active | inhibition [27]: Dose-dependent effect | Activity [28]: Active | Activity [29]: Active | inhibition [30]: Active | IC50 [31]: 850 nM | Activity [32]: Dose-dependent effect | IC50 [33]: 4530 nM | inhibition [34]: Active | Activity [35]: Active | Activity [36]: Active | IC50 [37]: 110 nM | Activity [38]: Active | IC50 [39]: > 2500 nM | IC50 [40]: 850 nM | IC50 [41]: 5250 nM
